Assay results published in PubChem BioAssay AID2060905 (Molecular Pharmacology Branch, DTP, NCI, 2025).
Blank lines part the entries; values can stand above or below the compound they belong to.

Test system: 282377-053-R-J1-PDC complex spheroid viability
Test: Anticancer human tumor 282377-053-R-J1-PDC patient-derived colon adenocarcinoma cell line growth inhibition [RAS]
Details: for IC50: curve of first compound; for viability, T/C: stronger effect = lower value
Outline: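 Multi-cell-type spheroids: tumor cells plus HUVEC endothelial cells and mesenchymal stem cells. RAS-pathway inhibitors were combined with targeted agents, each dosed in half-log steps down from clinical Cmax, or from 10 microM when Cmax was unknown.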

[1] = second compound 0.00316 µM, first compound 0.0316 µM
[2] = second compound 0.00316 µM, first compound 0.1 µM
[3] = second compound 0.01 µM, first compound 0.0316 µM
[4] = second compound 0.01 µM, first compound 0.1 µM
[5] = second compound 0.0316 µM, first compound 0.0316 µM
[6] = second compound 0.0316 µM, first compound 0.1 µM
[7] = second compound 0.1 µM, first compound 0.0316 µM
[8] = second compound 0.1 µM, first compound 0.1 µM
[9] = second compound 0.316 µM, first compound 0.0316 µM
[10] = second compound 0.316 µM, first compound 0.1 µM
[11] = second compound 1 µM, first compound 0.0316 µM
[12] = second compound 1 µM, first compound 0.1 µM
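Also: spheroids exposed to agents for seven days before readout.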
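For viability, T/C in this document: luminescence viability as percent of DMSO vehicle control wells.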

IC50 (second compound 0.00316 µM): > 10000 nM | IC50 (second compound 0.01 µM): > 10000 nM | IC50 (second compound 0.0316 µM): > 10000 nM | IC50 (second compound 0.1 µM): > 10000 nM | IC50 (second compound 0.316 µM): > 10000 nM | IC50 (second compound 1 µM): > 10000 nM
SMILES: CC(C)NCC(C(=O)N1CCN(c2ncnc3c2C(C)CC3O)CC1)c1ccc(Cl)cc1 (centres undefined) + C=CC(=O)N1CCN(c2nc(OCC3CCCN3C)nc3c(F)c(-c4nc(N)cc(C)c4C(F)(F)F)c(Cl)cc23)C(C)C1
viability, T/C [1]: 104% | viability, T/C [2]: 108% | viability, T/C (second compound 0.00316 µM, first compound 0.316 µM): 96.2% | viability, T/C (second compound 0.00316 µM, first compound 1 µM): 94.1% | viability, T/C (second compound 0.00316 µM, first compound 3.16 µM): 88.8% | viability, T/C (second compound 0.00316 µM, first compound 10 µM): 84.7% | viability, T/C [3]: 99.3% | viability, T/C [4]: 107% | viability, T/C (second compound 0.01 µM, first compound 0.316 µM): 83.2% | viability, T/C (second compound 0.01 µM, first compound 1 µM): 110% | viability, T/C (second compound 0.01 µM, first compound 3.16 µM): 89.5% | viability, T/C (second compound 0.01 µM, first compound 10 µM): 75.6% | viability, T/C [5]: 98.2% | viability, T/C [6]: 99.3% | viability, T/C (second compound 0.0316 µM, first compound 0.316 µM): 89.3% | viability, T/C (second compound 0.0316 µM, first compound 1 µM): 97.3% | viability, T/C (second compound 0.0316 µM, first compound 3.16 µM): 91.8% | viability, T/C (second compound 0.0316 µM, first compound 10 µM): 85.4% | viability, T/C [7]: 97.9% | viability, T/C [8]: 105% | viability, T/C (second compound 0.1 µM, first compound 0.316 µM): 98.7% | viability, T/C (second compound 0.1 µM, first compound 1 µM): 95.8% | viability, T/C (second compound 0.1 µM, first compound 3.16 µM): 82.7% | viability, T/C (second compound 0.1 µM, first compound 10 µM): 79.8% | viability, T/C [9]: 101% | viability, T/C [10]: 96.7% | viability, T/C (second compound 0.316 µM, first compound 0.316 µM): 96.2% | viability, T/C (second compound 0.316 µM, first compound 1 µM): 98% | viability, T/C (second compound 0.316 µM, first compound 3.16 µM): 101% | viability, T/C (second compound 0.316 µM, first compound 10 µM): 84.8% | viability, T/C [11]: 100% | viability, T/C [12]: 88.5% | viability, T/C (second compound 1 µM, first compound 0.316 µM): 118% | viability, T/C (second compound 1 µM, first compound 1 µM): 78.9% | viability, T/C (second compound 1 µM, first compound 3.16 µM): 68.7% | viability, T/C (second compound 1 µM, first compound 10 µM): 76%

IC50 (second compound 0.00316 µM): > 100 nM | IC50 (second compound 0.01 µM): 89.8 nM | IC50 (second compound 0.0316 µM): 94.1 nM | IC50 (second compound 0.1 µM): 85.9 nM | IC50 (second compound 0.316 µM): > 100 nM | IC50 (second compound 1 µM): > 100 nM
SMILES: CC(C)n1nc(-c2ccc3oc(N)nc3c2)c2c(N)ncnc21 + C=CC(=O)N1CCN(c2nc(OCC3CCCN3C)nc3c(F)c(-c4nc(N)cc(C)c4C(F)(F)F)c(Cl)cc23)C(C)C1
viability, T/C (second compound 0.00316 µM, first compound 0.000316 µM): 96.6% | viability, T/C (second compound 0.00316 µM, first compound 0.001 µM): 86.9% | viability, T/C (second compound 0.00316 µM, first compound 0.00316 µM): 80% | viability, T/C (second compound 0.00316 µM, first compound 0.01 µM): 87.7% | viability, T/C [1]: 62.8% | viability, T/C [2]: 54.5% | viability, T/C (second compound 0.01 µM, first compound 0.000316 µM): 85.3% | viability, T/C (second compound 0.01 µM, first compound 0.001 µM): 81% | viability, T/C (second compound 0.01 µM, first compound 0.00316 µM): 74.5% | viability, T/C (second compound 0.01 µM, first compound 0.01 µM): 87% | viability, T/C [3]: 68.8% | viability, T/C [4]: 47.8% | viability, T/C (second compound 0.0316 µM, first compound 0.000316 µM): 92.2% | viability, T/C (second compound 0.0316 µM, first compound 0.001 µM): 98.3% | viability, T/C (second compound 0.0316 µM, first compound 0.00316 µM): 87.5% | viability, T/C (second compound 0.0316 µM, first compound 0.01 µM): 82.5% | viability, T/C [5]: 97.5% | viability, T/C [6]: 47.7% | viability, T/C (second compound 0.1 µM, first compound 0.000316 µM): 81.7% | viability, T/C (second compound 0.1 µM, first compound 0.001 µM): 105% | viability, T/C (second compound 0.1 µM, first compound 0.00316 µM): 91% | viability, T/C (second compound 0.1 µM, first compound 0.01 µM): 78.3% | viability, T/C [7]: 77.5% | viability, T/C [8]: 45.7% | viability, T/C (second compound 0.316 µM, first compound 0.000316 µM): 110% | viability, T/C (second compound 0.316 µM, first compound 0.001 µM): 103% | viability, T/C (second compound 0.316 µM, first compound 0.00316 µM): 109% | viability, T/C (second compound 0.316 µM, first compound 0.01 µM): 68.3% | viability, T/C [9]: 61.9% | viability, T/C [10]: 48.6% | viability, T/C (second compound 1 µM, first compound 0.000316 µM): 99.9% | viability, T/C (second compound 1 µM, first compound 0.001 µM): 85.1% | viability, T/C (second compound 1 µM, first compound 0.00316 µM): 112% | viability, T/C (second compound 1 µM, first compound 0.01 µM): 67.7% | viability, T/C [11]: 55.4% | viability, T/C [12]: 61.9%
